Experimental data taken from ChEMBL document CHEMBL5036301, “Heteroaryl ether analogues of an antileishmanial 7-substituted 2-nitroimidazooxazine lead afford attenuated hERG risk: In vitro and in vivo appraisal” (Eur J Med Chem, 2021).
pIC50: −log10 of the molar value. Values after ≈ are worked out from the molar mass of the structure shown.

System: MRC5
Assay: Cytotoxicity against human MRC5 cells assessed as cell viability after 72 hrs by fluorimetric analysis
Format: ADME, cell-based
Conditions: MRC5, 72 h

`C[C@@]1(COc2ccc(C(F)(F)F)nc2)CCn2cc([N+](=O)[O-])nc2O1` and `CC1(COc2ccc(C(F)(F)F)nn2)CCn2cc([N+](=O)[O-])nc2O1` (centres undefined) cannot be ordered by pIC50: under 4.19 for the first, under 4.19 for the second.

`CC1(COc2ncc(F)cn2)CCn2cc([N+](=O)[O-])nc2O1` (centres undefined) and `CC1(COc2ccc(Cl)cn2)CCn2cc([N+](=O)[O-])nc2O1` (centres undefined) cannot be ordered by pIC50: under 4.19 for the first, under 4.19 for the second.

`CC1(COc2ccc(Cl)cc2)CCn2cc([N+](=O)[O-])nc2O1` (centres undefined) and `CC1(COc2ccccc2)CCn2cc([N+](=O)[O-])nc2O1` (centres undefined) cannot be ordered by pIC50: under 4.19 for the first, under 4.19 for the second.

In the case of `CC1(COc2cc(C(F)(F)F)ccn2)CCn2cc([N+](=O)[O-])nc2O1` (centres undefined), the pIC50 was under 4.19.

System: Leishmania infantum
Assay: Antileishmanial activity against Leishmania infantum MHOM/MA(BE)/67 amastigotes infected in macrophages assessed as reduction in parasite burden by giemsa staining based microscopic analysis
Format: functional, organism-based
Conditions: not given

Point of comparison: `CC1(COc2ccccc2)CCn2cc([N+](=O)[O-])nc2O1` (centres undefined), pIC50 6.28. Against it:
- C[C@@]1(COc2ccc(C(F)(F)F)nc2)CCn2cc([N+](=O)[O-])nc2O1 — 0.64 log units lower, 5.64
- CC1(COc2ccc(C(F)(F)F)nn2)CCn2cc([N+](=O)[O-])nc2O1 (centres undefined) — lower, < 4.19
- CC1(COc2ncc(F)cn2)CCn2cc([N+](=O)[O-])nc2O1 (centres undefined) — lower, < 4.19
- CC1(COc2ccc(Cl)cn2)CCn2cc([N+](=O)[O-])nc2O1 (centres undefined) — within 0.2 log units, 6.42
- CC1(COc2ccc(Cl)cc2)CCn2cc([N+](=O)[O-])nc2O1 (centres undefined) — 0.61 log units higher, 6.89
- CC1(COc2cc(C(F)(F)F)ccn2)CCn2cc([N+](=O)[O-])nc2O1 (centres undefined) — within 0.2 log units, 6.35

System: not listed separately
Assay: Stability of compound in human liver microsomes assessed as percentage of parent compound remaining at 1 uM measured after 1 hr
Conditions: not given

With `CC1(COc2ccc(C(F)(F)F)nn2)CCn2cc([N+](=O)[O-])nc2O1` (centres undefined) the remaining at 1 h, 1 µM was 90%.

System: Mycobacterium tuberculosis
Assay: Antitubercular activity against Mycobacterium tuberculosis H37Rv assessed as reduction in microbial growth under anaerobic condition by luminescence analysis
Format: functional
Conditions: not given

Point of comparison: `CC1(COc2ccc(Cl)cc2)CCn2cc([N+](=O)[O-])nc2O1` (centres undefined), MIC 7 µM. Against it:
- C[C@@]1(COc2ccc(C(F)(F)F)nc2)CCn2cc([N+](=O)[O-])nc2O1 — higher, > 128 µM
- CC1(COc2ccc(Cl)cn2)CCn2cc([N+](=O)[O-])nc2O1 (centres undefined) — within 1.5-fold, 8.7 µM
- CC1(COc2ccccc2)CCn2cc([N+](=O)[O-])nc2O1 (centres undefined) — within 1.5-fold, 8.1 µM

System: not listed separately
Assay: AUClast in mouse at 1 mg/kg, iv measured upto 24 hrs LC-MS/MS analysis
Conditions: in vivo

Point of comparison: `CC1(COc2ccc(Cl)cn2)CCn2cc([N+](=O)[O-])nc2O1` (centres undefined), AUC(0-t) at 24 h 2010 ng·h/mL. Against it:
- C[C@@]1(COc2ccc(C(F)(F)F)nc2)CCn2cc([N+](=O)[O-])nc2O1 — within 1.5-fold, 2760 ng·h/mL

System: not listed separately
Assay: Selectivity index, ratio IC50 for cytotoxicity against human MRC5 cells to IC50 for antileishmanial activity against Leishmania infantum MHOM/MA(BE)/67 amastigotes infected in macrophages
Conditions: not given

`CC1(COc2ccc(Cl)cc2)CCn2cc([N+](=O)[O-])nc2O1` (centres undefined) and `CC1(COc2ccccc2)CCn2cc([N+](=O)[O-])nc2O1` (centres undefined) cannot be ordered by selectivity ratio: over 492 for the first, over 123 for the second.

Work on `CC1(COc2cc(C(F)(F)F)ccn2)CCn2cc([N+](=O)[O-])nc2O1` (centres undefined) yielded a selectivity ratio of over 142.

System: not listed separately
Assay: in vivo
Conditions: mouse, po, 25 mg/kg

Point of comparison: `C[C@@]1(COc2ccc(C(F)(F)F)nc2)CCn2cc([N+](=O)[O-])nc2O1`, Cmax at 24 h 8000 ng/mL. Against it:
- CC1(COc2ccc(Cl)cn2)CCn2cc([N+](=O)[O-])nc2O1 (centres undefined) — within 1.5-fold, 11000 ng/mL

System: Trypanosoma cruzi
Assay: Antitrypanosomal activity against Trypanosoma cruzi Tulahuen CL2 infected in human MRC-5 cells assessed as parasite growth
Format: functional, organism-based
Conditions: Tulahuen CL2, MRC5

Point of comparison: `CC1(COc2ncc(F)cn2)CCn2cc([N+](=O)[O-])nc2O1` (centres undefined), pIC50 4.85. Against it:
- C[C@@]1(COc2ccc(C(F)(F)F)nc2)CCn2cc([N+](=O)[O-])nc2O1 — 0.89 log units higher, 5.74
- CC1(COc2ccc(C(F)(F)F)nn2)CCn2cc([N+](=O)[O-])nc2O1 (centres undefined) — 0.57 log units higher, 5.42
- CC1(COc2ccc(Cl)cn2)CCn2cc([N+](=O)[O-])nc2O1 (centres undefined) — 1.35 log units higher, 6.20
- CC1(COc2ccc(Cl)cc2)CCn2cc([N+](=O)[O-])nc2O1 (centres undefined) — 1.89 log units higher, 6.74
- CC1(COc2cc(C(F)(F)F)ccn2)CCn2cc([N+](=O)[O-])nc2O1 (centres undefined) — 1.22 log units higher, 6.07
- CC1(COc2ccccc2)CCn2cc([N+](=O)[O-])nc2O1 (centres undefined) — 1.38 log units higher, 6.23

System: not listed separately
Assay: Stability of compound in CD-1 mouse liver microsomes assessed as percentage of parent compound remaining at 1 uM measured after 1 hr
Conditions: not given

`CC1(COc2ccc(C(F)(F)F)nn2)CCn2cc([N+](=O)[O-])nc2O1` (centres undefined) showed a remaining at 1 h, 1 µM of 89%.

System: not listed separately
Assay: Clearance in mouse at 1 mg/kg, iv measured upto 24 hrs LC-MS/MS analysis
Conditions: in vivo

Point of comparison: `C[C@@]1(COc2ccc(C(F)(F)F)nc2)CCn2cc([N+](=O)[O-])nc2O1`, clearance at 24 h 6 mL/min/kg. Against it:
- CC1(COc2ccc(Cl)cn2)CCn2cc([N+](=O)[O-])nc2O1 (centres undefined) — within 1.5-fold, 8.3 mL/min/kg

System: Mycobacterium tuberculosis
Assay: Antitubercular activity against Mycobacterium tuberculosis H37Rv assessed as reduction in microbial growth under aerobic condition by luminescence analysis
Format: functional
Conditions: not given

Point of comparison: `CC1(COc2ccccc2)CCn2cc([N+](=O)[O-])nc2O1` (centres undefined), MIC 1.3 µM. Against it:
- C[C@@]1(COc2ccc(C(F)(F)F)nc2)CCn2cc([N+](=O)[O-])nc2O1 — higher, > 128 µM
- CC1(COc2ccc(Cl)cn2)CCn2cc([N+](=O)[O-])nc2O1 (centres undefined) — 1.5-fold higher, 2 µM
- CC1(COc2ccc(Cl)cc2)CCn2cc([N+](=O)[O-])nc2O1 (centres undefined) — 1.5-fold lower, 0.86 µM

System: Leishmania donovani
Assay: Antileishmanial activity against Leishmania donovani amastigotes infected in mouse J774A.1 cells incubated for 72 hrs by luciferase assay
Format: functional, organism-based
Conditions: J774.A1, 72 h

Point of comparison: `CC1(COc2ccc(Cl)cc2)CCn2cc([N+](=O)[O-])nc2O1` (centres undefined), pIC50 7.30. Against it:
- C[C@@]1(COc2ccc(C(F)(F)F)nc2)CCn2cc([N+](=O)[O-])nc2O1 — 1.17 log units lower, 6.13
- CC1(COc2ncc(F)cn2)CCn2cc([N+](=O)[O-])nc2O1 (centres undefined) — 1.13 log units lower, 6.17
- CC1(COc2ccc(Cl)cn2)CCn2cc([N+](=O)[O-])nc2O1 (centres undefined) — 0.48 log units lower, 6.82
- CC1(COc2ccccc2)CCn2cc([N+](=O)[O-])nc2O1 (centres undefined) — 0.78 log units lower, 6.52

System: not listed separately
Assay: AUClast in mouse at 25 mg/kg, po measured upto 24 hrs LC-MS/MS analysis
Conditions: in vivo

Point of comparison: `CC1(COc2ccc(Cl)cn2)CCn2cc([N+](=O)[O-])nc2O1` (centres undefined), AUC(0-t) at 24 h 57800 ng·h/mL. Against it:
- C[C@@]1(COc2ccc(C(F)(F)F)nc2)CCn2cc([N+](=O)[O-])nc2O1 — 1.6-fold lower, 37200 ng·h/mL

System: not listed separately
Assay: Stability of compound in hamster liver microsomes assessed as percentage of parent compound remaining at 1 uM measured after 1 hr
Conditions: chinese hamster

`CC1(COc2ccc(C(F)(F)F)nn2)CCn2cc([N+](=O)[O-])nc2O1` (centres undefined) showed a remaining at 1 h, 1 µM of 58%.

System: not listed separately
Assay: Volume of distribution at steady state in mouse at 1 mg/kg, iv measured upto 24 hrs LC-MS/MS analysis
Conditions: in vivo

Point of comparison: `CC1(COc2ccc(Cl)cn2)CCn2cc([N+](=O)[O-])nc2O1` (centres undefined), Vd at 24 h 0.5 L/kg. Against it:
- C[C@@]1(COc2ccc(C(F)(F)F)nc2)CCn2cc([N+](=O)[O-])nc2O1 — 1.5-fold higher, 0.75 L/kg

System: not listed separately
Assay: Kinetic solubility of compound in water at pH7 by HPLC analysis
Conditions: pH 7

Point of comparison: `C[C@@]1(COc2ccc(C(F)(F)F)nc2)CCn2cc([N+](=O)[O-])nc2O1`, solubility kinetic 15 µg/mL (≈ 41.9 µM). Against it:
- CC1(COc2ccc(C(F)(F)F)nn2)CCn2cc([N+](=O)[O-])nc2O1 (centres undefined) — 1.5-fold lower, 10 µg/mL (≈ 27.8 µM)
- CC1(COc2ccc(Cl)cn2)CCn2cc([N+](=O)[O-])nc2O1 (centres undefined) — 1.5-fold higher, 23 µg/mL (≈ 70.8 µM)

System: not listed separately
Assay: Half life in mouse at 1 mg/kg, iv measured upto 24 hrs LC-MS/MS analysis
Conditions: in vivo

Point of comparison: `C[C@@]1(COc2ccc(C(F)(F)F)nc2)CCn2cc([N+](=O)[O-])nc2O1`, half-life at 24 h 72 min. Against it:
- CC1(COc2ccc(Cl)cn2)CCn2cc([N+](=O)[O-])nc2O1 (centres undefined) — 1.8-fold lower, 39 min

System: not listed separately
Assay: in vivo
Conditions: mouse, po, 25 mg/kg
Remark: another data set of the same source

Point of comparison: `C[C@@]1(COc2ccc(C(F)(F)F)nc2)CCn2cc([N+](=O)[O-])nc2O1`, Tmax at 24 h 2 h. Against it:
- CC1(COc2ccc(Cl)cn2)CCn2cc([N+](=O)[O-])nc2O1 (centres undefined) — 2-fold lower, 1 h

System: not listed separately
Assay: Initial plasma concentration in mouse at 1 mg/kg, iv measured upto 24 hrs LC-MS/MS analysis
Conditions: not given

Point of comparison: `CC1(COc2ccc(Cl)cn2)CCn2cc([N+](=O)[O-])nc2O1` (centres undefined), C0 at 24 h 2600 ng/mL. Against it:
- C[C@@]1(COc2ccc(C(F)(F)F)nc2)CCn2cc([N+](=O)[O-])nc2O1 — within 1.5-fold, 1900 ng/mL

System: Leishmania donovani
Assay: Antileishmanial activity against Leishmania donovani amastigotes infected in BALB/C mouse assessed as reduction in parasite burden in liver tissue at 50 mg/kg, po administered once per day for 5 days relative to control
Format: functional
Conditions: 120 h, time 5 day

Point of comparison: `C[C@@]1(COc2ccc(C(F)(F)F)nc2)CCn2cc([N+](=O)[O-])nc2O1`, inhibition in vivo at 50 mg/kg 46%. Against it:
- CC1(COc2ccc(C(F)(F)F)nn2)CCn2cc([N+](=O)[O-])nc2O1 (centres undefined) — lower, 0%
- CC1(COc2ccc(Cl)cn2)CCn2cc([N+](=O)[O-])nc2O1 (centres undefined) — lower, 14%

System: not listed separately
Assay: in vivo
Conditions: mouse, po, 25 mg/kg
Remark: another data set of the same source

Point of comparison: `C[C@@]1(COc2ccc(C(F)(F)F)nc2)CCn2cc([N+](=O)[O-])nc2O1`, bioavailability at 24 h 54%. Against it:
- CC1(COc2ccc(Cl)cn2)CCn2cc([N+](=O)[O-])nc2O1 (centres undefined) — higher, 100%
